# *1 amine or outer side, *2 acyl side, *3 side chain or, on linkers, in order; H or OH if unused. Where no end group is shown, it is not given here. Suc = O=C(CCC(=O)[*:2])[*:1]
# What was measured:
# [1] = tested on: postnatal rat brain; assay: Immunoblotting of VEGF, NGF and ETB receptors in the postnatal rat brain after IRL-1620; assay type: in vivo, Sprague-Dawley rats
# Text: (§1) After 21 days of gestation, 70 male and 65 female pups were born to 10 pregnant female rats. 30 male pups were randomly selected for Study I, and divided into 4 groups as follows: Group 1=male pups euthanized on postnatal day 1 (N=10); Group 2=male pups euthanized on postnatal day 7 (N=10); Group 3=male pups euthanized on postnatal day 14 (N=5); Group 4=male pups euthanized on postnatal day 28 (N=5). An additional 20 male pups were randomly selected for Study II, and divided into 2 groups: Control (N=10) and IRL-1620-treated (N=10). Pups in Study II received 3 doses of either isotonic saline (1 ml/kg) or ETB receptor agonist IRL-1620 (5 μg/kg; American Peptide Co, Inc., Sunnyvale, Calif.) on postnatal day 21. The doses were given intravenously at 2 hour intervals. All pups were weighed and evaluated for developmental and behavioral characteristics at postnatal day 1, 7, 14 and 28. Developmental and behavioral characteristics included active vs. sluggish behavior, healthy vs. shedding fur, licking, grooming, aggressive behavior, defecation, urination and wet dog shakes.
# Protein levels of VEGF, NGF and ETB receptors in the postnatal rat brain of animals in Study II were estimated using immunoblotting technique. Animals were decapitated and the brains were removed on postnatal day 28, which is 7 days post administration of either saline or ETB receptor agonist, IRL-1620. The tissue was homogenized in 10× (w/v) RIPA lysis buffer, and protein concentration was determined according to the Lowry method, using bovine serum albumin as standard (Lowry et al., 1951). Protein (60 μg) was denatured in Laemmli sample buffer and resolved in 10% SDS-PAGE, and then transferred onto nitrocellulose membrane. […] Protein expression was analyzed using Image J (NIH) software.
# [2] = tested on: postnatal rat brain; assay: Immunofluorescent labeling of ETB receptors, VEGF and NGF in the postnatal rat brain after IRL-1620; assay type: in vivo, Sprague-Dawley rats; conditions: IRL-1620 on postnatal day 21, brain at day 28, vs control
# Experimental: Timed pregnant female Sprague-Dawley rats (Harlan, Indianapolis, Ind.) were caged singly in a room controlled for ambient temperature (23±1° C.), humidity (50±10%) and a 12 h light/dark cycle (6:00 am-6:00 pm). Food and water were available ad libitum. All animal care and use for procedures were approved by the Institutional Animal Care and Use Committee (IACUC) of Midwestern University. In order to avoid variation due to hormonal changes, male pups only were separated and utilized for this study. The pups were euthanized via decapitation on postnatal day 1, 7, 14 and 28. The brains were aseptically removed and processed for either immunofluorescent labeling or immunoblot analysis of ETB receptors, VEGF and NGF.
# as §1
# Immunofluorescently labeled antibodies were used to determine the expression of ETB receptors, VEGF and NGF in the developing rat brain. Male rat pups were euthanized via decapitation, and the brains were removed at postnatal day 1, 7, 14 and 28. The brains were washed in isotonic saline and transferred to a 4% paraformaldehyde (PFA)/NaPO4 buffer solution for 2 hours to fix the tissue, followed by suspension in a 20% sucrose/4% PFA solution for 48 hours at 4° C. Brains were then sliced into 20 μm thick coronal sections at −30° C. using a cryostat (Microtome cryostat HM 505 E; Walldorf, Germany). Sections were processed for immunofluorescent staining as described by Loo, et al. (Loo et al., 2002), with minor modifications. […] Fluorescence was detected using an inverted fluorescent microscope (Nikon Eclipse TiE, Melville, N.Y.). […]
# [3] = IRL-1620 on postnatal day 21, brain at day 28, vs control
substance,measurement,setting,value
Suc-Asp-Glu-Glu-Ala-Val-Tyr-Phe-Ala-His-Leu-Asp-Ile-Ile-Trp (Suc-DEEAVYFAHLDIIW) [IRL-1620],Protein expression of ETB receptors (immunoblotting),"[1]; IRL-1620 5 μg/kg IV x3 on postnatal day 21, brain at day 28, vs control",increased
same,Overall VEGF expression (immunoblotting),[1]; [3],significantly enhanced
same,Overall expression of NGF (immunoblotting),[1]; [3],comparable
same,Intensity of ETB receptor staining in cerebral vasculature and cortex,[2],significantly higher
same,"Intensity of NGF staining and number of NGF-positive cells, cortex or subventricular zones",[2],did not alter
same,Intensity of VEGF staining,[2],further increase
same,Number of VEGF-positive vessels,[2],further increase
